Assay results: patent US10364256B2 (GlaxoSmithKline Intellectual Property Development Limited, priority 2015, dated 2019)
Where a name gives a salt, the structure may show the parent alone. Read-outs that look alike come from different tables or passages of the source.

Legend:
[1] = biological target: T1, full length Keap1 protein / full length NRF2 protein (Homo sapiens, UniProt Q14145); test: NRF2-Keap1 TR-FRET Low Protein Assay; type: binding; details: 1.25 nM Keap1 FlagHis and 2.5 nM biotin-NRF2 added
T1 construct: full length NRF2 protein and full length Keap1 protein (Keap1 exists a dimer) are used; His
Method in brief: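 Flag-tagged full-length Keap1 was preincubated with compound (3-fold series) for 2.25 h at 37 °C in Tris pH 8.0/MgCl2/NaCl/BSA/DTT/CHAPS. Biotin-Avi-NRF2 (added at 2.5 nM) was then bound for 1.25 h at 4 °C. Eu-streptavidin/anti-Flag-APC TR-FRET (665/615 nm) was read after 1 h at RT, and pIC50 came from a four-parameter fit.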

[2] = tested on: NQO1 specific enzyme activity in BEAS-2B cells (marker for NRF2 activation); test: BEAS-2B NQO1 MTT Assay; type: cell-based; details: compound incubated 48 hours, read-out: EC50 (NQO1 specific enzyme activity induction)
Method in brief: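 BEAS-2B cells treated with compound for 48 h at 37 °C, then lysed; NQO1 activity in lysates measured kinetically by MTT reduction at A570 over 30 min. pEC50 from 3-parameter fit of ΔOD/min versus log concentration; lysate also taken for Cell Titer Glo.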

[3] = biological target: T2, Keap1 Kelch domain (321-609) / TAMRA-labeled 16mer NRF2 peptide (ETGE motif) (Homo sapiens, UniProt Q14145); test: NRF2-Keap1 FP Assay (Keap1 Kelch fluorescence polarization); type: binding; details: 20 nM Keap1 (321-609), 8 nM Tamra labeled peptide
T2 construct: the Kelch domain (321-609) of Keap1 is used
Method in brief: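 Compound dilutions (3-fold) were incubated 1 hr at room temperature with 20 nM Keap1 Kelch (321-609) and 8 nM TAMRA-labeled ETGE 16mer peptide. Buffer was 50 mM Tris pH 8.0, 100 mM NaCl, 5 mM MgCl2, 1 mM DTT, 2 mM CHAPS, 0.005% BSA. Fluorescence polarization (mP) was normalized to controls and fitted with a four-parameter equation to give pIC50.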

T1 sequence (Q14145 whole entry): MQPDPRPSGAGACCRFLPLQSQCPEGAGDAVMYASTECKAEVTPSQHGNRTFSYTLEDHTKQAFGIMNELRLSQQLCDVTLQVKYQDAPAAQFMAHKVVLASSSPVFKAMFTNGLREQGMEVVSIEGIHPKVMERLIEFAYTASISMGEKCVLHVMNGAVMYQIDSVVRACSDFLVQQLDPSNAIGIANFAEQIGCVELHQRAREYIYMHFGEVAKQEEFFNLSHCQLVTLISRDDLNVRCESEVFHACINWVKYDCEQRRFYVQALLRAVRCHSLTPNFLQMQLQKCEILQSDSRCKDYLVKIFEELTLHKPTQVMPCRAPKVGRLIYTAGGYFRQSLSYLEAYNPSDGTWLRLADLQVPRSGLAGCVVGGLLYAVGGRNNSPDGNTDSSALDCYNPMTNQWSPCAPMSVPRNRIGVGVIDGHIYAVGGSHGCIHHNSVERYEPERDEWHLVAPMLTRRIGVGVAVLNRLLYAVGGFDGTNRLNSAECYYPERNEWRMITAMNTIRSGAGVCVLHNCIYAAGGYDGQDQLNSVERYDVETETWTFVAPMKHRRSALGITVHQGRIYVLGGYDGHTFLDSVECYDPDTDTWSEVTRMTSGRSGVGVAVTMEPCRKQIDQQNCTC
T2 sequence (Q14145 321-609): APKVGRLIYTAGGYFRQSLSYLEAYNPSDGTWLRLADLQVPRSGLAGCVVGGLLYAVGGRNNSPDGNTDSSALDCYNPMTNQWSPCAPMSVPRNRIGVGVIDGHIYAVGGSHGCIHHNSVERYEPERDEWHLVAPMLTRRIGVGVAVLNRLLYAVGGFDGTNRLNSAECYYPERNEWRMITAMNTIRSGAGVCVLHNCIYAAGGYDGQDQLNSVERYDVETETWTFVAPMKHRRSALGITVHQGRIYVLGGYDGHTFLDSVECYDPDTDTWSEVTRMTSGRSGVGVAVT

IC50 [1] | IC50 [3] | SMILES | EC50 ([2]; Homo sapiens) | EC50 ([2]; Homo sapiens, BEAS-2B, 48 h) | EC50 [2]
10 to 100 nM | 100 to 1000 nM | CC(Oc1cccc(-c2cccc(-n3ncc(C(=O)O)c3[C@H]3C[C@@H]3c3cn(C(C)C)nn3)c2)c1)C1CCCCC1 (mixture of isomers) [Example 195, 1-(3′-(1-cyclohexylethoxy)-[1,1′-biphenyl]-3-yl)-5-((1,2-trans)-2-(1-isopropyl-1H-1,2,3-triazol-4-yl)cyclopropyl)-1H-pyrazole-4-carboxylic acid] | 10 to 100 nM | – | –
< 10 nM | 10 to 100 nM | CCC[C@@H]1CCCCN1C(=O)c1cccc(-c2cccc(-n3ncc(C(=O)O)c3[C@H]3C[C@@H]3c3cn(C(C)C)nn3)c2)c1 (racemic) [Example 200] | – | 100 to 1000 nM | –
> 100000 nM | > 10000 nM | CC(Oc1ccc(-c2cccc(-n3ncc(C(=O)O)c3[C@H]3C[C@@H]3c3cn(C)nn3)c2)cc1)C1CCCCC1 (mixture of isomers) [Example 241, 1-(4′-(1-Cyclohexylethoxy)-[1,1′-biphenyl]-3-yl)-5-((1,2-trans)-2-(1-methyl-1H-1,2,3-triazol-4-yl)cyclopropyl)-1H-pyrazole-4-carboxylic Acid] | 1000 to 10000 nM | – | –
10 to 100 nM | 10 to 100 nM | CCC(Oc1cccc(-c2cccc(-n3ncc(C(=O)O)c3[C@H]3C[C@@H]3c3cn(C)nn3)c2)c1)C1CCCCC1 (mixture of isomers) [Example 242] | 10 to 100 nM | – | –
10 to 100 nM | 10 to 100 nM | Cn1cc([C@@H]2C[C@H]2c2c(C(=O)O)cnn2-c2cccc(-c3cccc(CN4CCOc5ccccc5C4)c3)c2)nn1 (racemic) [Example 256, 1-(3′-((2,3-Dihydrobenzo[f][1,4]oxazepin-4(5H)-yl)methyl)-[1,1′-biphenyl]-3-yl)-5-(trans-2-(1-methyl-1H-1,2,3-triazol-4-yl)cyclopropyl)-1H-pyrazole-4-carboxylic Acid] | 1000 to 10000 nM | – | –
10 to 100 nM | 10 to 100 nM | CC(Cc1cccc(-c2cccc(-n3ncc(C(=O)O)c3[C@@H]3C[C@H]3c3cn(C)nn3)c2)c1)C1CCCCC1 (single isomer, unassigned) [Example 116e, 1-(3′-((R) or (S)-2-Cyclohexylpropyl)-[1,1′-biphenyl]-3-yl)-5-((1R,2R)-2-(1-methyl-1H-1,2,3-triazol-4-yl)cyclopropyl)-1H-pyrazole-4-carboxylic Acid] | 1 to 10 nM | – | –
< 10 nM | 10 to 100 nM | CC[C@H]1c2ccccc2OCCN1Cc1cccc(-c2cccc(-n3ncc(C(=O)O)c3[C@@H]3C[C@H]3c3cn(C)nn3)c2)c1 (single isomer, unassigned; isomer 1) [Example 122] | – | – | 10 to 100 nM
< 10 nM | 10 to 100 nM | CC[C@H]1c2ccccc2OC(C)(C)CN1Cc1cccc(-c2cccc(-n3ncc(C(=O)O)c3[C@@H]3C[C@H]3c3cn(C)nn3)c2)c1 (single isomer, unassigned; isomer 1) [Example 124] | 10 to 100 nM | – | –
< 10 nM | 10 to 100 nM | C[C@H]1Cc2ccc(Br)cc2S(=O)(=O)N(Cc2cccc(-c3cccc(-n4ncc(C(=O)O)c4[C@@H]4C[C@H]4c4cn(C)nn4)c3)c2)C1 (single isomer, unassigned; isomer 1) [Example 134] | 100 to 1000 nM | – | –
< 10 nM | 1 to 10 nM | CC[C@H]1c2ccccc2OCCN1Cc1cccc(-c2cccc(-n3ncc(C(=O)O)c3[C@@H]3C[C@H]3c3cn(C)nn3)c2)c1 (single isomer, unassigned; isomer 2) [Example 121] | 10 to 100 nM | – | –
< 10 nM | 10 to 100 nM | CC[C@@H]1c2ccccc2OC(C)(C)CN1Cc1cccc(-c2cccc(-n3ncc(C(=O)O)c3[C@@H]3C[C@H]3c3cn(C)nn3)c2)c1 (single isomer, unassigned; isomer 2) [Example 125] | 1 to 10 nM | – | –
10 to 100 nM | 10 to 100 nM | C[C@@H]1Cc2ccc(Br)cc2S(=O)(=O)N(Cc2cccc(-c3cccc(-n4ncc(C(=O)O)c4[C@@H]4C[C@H]4c4cn(C)nn4)c3)c2)C1 (single isomer, unassigned; isomer 2) [Example 135] | 10 to 100 nM | – | –
< 10 nM | 10 to 100 nM | CC[C@@H]1CN(Cc2cccc(-c3cccc(-n4ncc(C(=O)O)c4[C@@H]4C[C@H]4c4cn(C)nn4)c3)c2)Cc2ccccc2O1 [Example 65, 1-(3′-(((R)-2-Ethyl-2,3-dihydrobenzo[f][1,4]oxazepin-4(5H)-yl)methyl)-[1,1′-biphenyl]-3-yl)-5-((1R,2R)-2-(1-methyl-1H-1,2,3-triazol-4-yl)cyclopropyl)-1H-pyrazole-4-carboxylic Acid] | 100 to 1000 nM | – | –
< 10 nM | 10 to 100 nM | C[C@H](Oc1cccc(-c2cccc(-n3ncc(C(=O)O)c3[C@@H]3C[C@H]3c3cn(C)nn3)c2)c1)C1CCCCCC1 [Example 73, 1-(3′-((S)-1-Cycloheptylethoxy)-[1,1′-biphenyl]-3-yl)-5-((1R,2R)-2-(1-methyl-1H-1,2,3-triazol-4-yl)cyclopropyl)-1H-pyrazole-4-carboxylic Acid] | 1 to 10 nM | – | –
10 to 100 nM | 10 to 100 nM | C[C@@H](Oc1cccc(-c2cccc(-n3ncc(C(=O)O)c3[C@@H]3C[C@H]3c3cn(C)nn3)c2)c1)C1CCCCCC1 [Example 74, 1-(3′-((R)-1-Cycloheptylethoxy)-[1,1′-biphenyl]-3-yl)-5-((1R,2R)-2-(1-methyl-1H-1,2,3-triazol-4-yl)cyclopropyl)-1H-pyrazole-4-carboxylic Acid] | 10 to 100 nM | – | –

SMILES | IC50 [1] | IC50 [3] | EC50 ([2]; Homo sapiens) | EC50 ([2]; Homo sapiens, BEAS-2B, 48 h) | EC50 [2]
C[C@H](Oc1cccc(-c2cccc(-n3ncc(C(=O)O)c3[C@@H]3C[C@H]3c3cn(C)nn3)c2)c1)C1CCCCC1 [Example 64, 1-(3′-((S)-1-Cyclohexylethoxy)-[1,1′-biphenyl]-3-yl)-5-((1R,2R)-2-(1-methyl-1H-1,2,3-triazol-4-yl)cyclopropyl)-1H-pyrazole-4-carboxylic Acid] | < 10 nM | 10 to 100 nM | – | 10 to 100 nM | –
C[C@H](Oc1cccc(-c2cccc(-n3ncc(C(=O)O)c3[C@@H]3C[C@H]3c3cn(C)nn3)c2)c1)C1CCCCC1 [Example 68, 1-(3′-((S)-1-Cyclohexylethoxy)-[1,1′-biphenyl]-3-yl)-5-((1R,2R)-2-(1-methyl-1H-1,2,3-triazol-4-yl)cyclopropyl)-1H-pyrazole-4-carboxylate, Sodium salt] | < 10 nM | 10 to 100 nM | – | 1 to 10 nM | –
C[C@H](Oc1cccc(-c2cccc(-n3ncc(C(=O)O)c3[C@@H]3C[C@H]3c3cn(C)nn3)c2)c1)C1CCCCC1 [Example 69, Barium 1-(3′-((S)-1-Cyclohexylethoxy)-[1,1′-biphenyl]-3-yl)-5-((1R,2R)-2-(1-methyl-1H-1,2,3-triazol-4-yl)cyclopropyl)-1H-pyrazole-4-carboxylate Hydroxide] | < 10 nM | 1 to 10 nM | – | – | < 1 nM
C[C@H](Oc1cccc(-c2cccc(-n3ncc(C(=O)O)c3[C@@H]3C[C@H]3c3cn(C)nn3)c2)c1)C1CCCCC1 [Example 70, Calcium 1-(3′-((S)-1-Cyclohexylethoxy)-[1,1′-biphenyl]-3-yl)-5-((1R,2R)-2-(1-methyl-1H-1,2,3-triazol-4-yl)cyclopropyl)-1H-pyrazole-4-carboxylate Hydroxide] | < 10 nM | 10 to 100 nM | < 1 nM | – | –
